Reference: patent US20130130912A1, “AGROCHEMICAL FORMULATION COMPOSITION” (priority 2010, published 2013)

Experiments:
[1] = solubility of pesticide actives in dialkyl carbonate solvents (CIPAC method MT181); format: physicochemical; conditions: 20 deg C.; for solubility in Bis-(2-ethylhexyl) carbonate solvent: Bis-(2-ethylhexyl) carbonate solvent (comparative)
Source text: All solubility measurements are done according to the CIPAC method MT181.

[2] = phytotoxic properties of dialkyl carbonates
Source text: A further advantage of the dialkylcarbonates used, is their compatibility with construction materials used in spraying equipment.

Row | SMILES | solubility in Bis-(2-ethylhexyl) carbonate solvent [1] | SOLUBILITY OF PESTICIDE ACTIVES IN di-n-butylcarbonate (DNBC) SOLVENT [1] [grams/litre] | solubility in di-n-pentyl carbonate solvent [1] | SOLUBILITY OF PESTICIDE ACTIVES IN di-n-propylcarbonate (DNPC) SOLVENT [1] [grams/litre] | phytotoxicity [2]
1 | Fc1ccc([C@]2(Cn3cncn3)O[C@H]2c2ccccc2Cl)cc1 (racemic) [Epoxiconazole] | <10 grams/litre | 45 | 20-25 grams/litre | – | –
2 | CCNc1nc(NC(C)C)nc(SC)n1 [Ametryn] | 80-100 grams/litre | 350 | 120 grams/litre | >250 | –
3 | O=C(Nc1ccc(F)cc1F)c1cccnc1Oc1cccc(C(F)(F)F)c1 [Diflufenican] | <10 grams/litre | <50 | 14-20 grams/litre | – | –
4 | CCc1cccc(C)c1N(C(=O)CCl)C(C)COC (centres unmarked) [Metolachlor] | >200 grams/litre | >600 | >200 grams/litre | – | –
5 | CCC(CC)Nc1c([N+](=O)[O-])cc(C)c(C)c1[N+](=O)[O-] [Pendimethalin] | 80-100 grams/litre | >300 | >100 grams/litre | >300 | –
6 | CC(C)(C)C(O)(CCc1ccc(Cl)cc1)Cn1cncn1 (centres unmarked) [Tebuconazole] | <10 grams/litre | 140 | 33-40 grams/litre | >100 | –
7 | CC(C)(C)C(O)C(Oc1ccc(Cl)cc1)n1cncn1 (centres unmarked) [Triadimenol] | <10 grams/litre | 45 | 20-25 grams/litre | – | –
8 | CCCN(CCC)c1c([N+](=O)[O-])cc(C(F)(F)F)cc1[N+](=O)[O-] [Trifluralin] | 80-100 grams/litre | >600 | >250 grams/litre | >600 | –
9 | CCCCOC(=O)OCCCC [di-n-butyl carbonate, di-n-butylcarbonate] | – | – | – | – | not to be phytotoxic
